We go through 19 compounds from patent publication US6812225B2, “Therapeutic heterocyclic compounds” (AstraZeneca AB, priority 2001, dated 2004).

The term melting point denotes the temperature of the solid-liquid transition. Broadly, the Kd is a measure of binding affinity in units of concentration.

The test system of the first data set is guinea pigs. Nature of the data set: Learned helplessness test. It counts as in vivo, guinea pig. To be noted: antidepressant/antianxiety activity. An excerpt: The utility of the compounds for example to treat depression may be shown via a learned helplessness test in guinea pigs, which is used extensively as correlative to antidepressant activity in humans. The learned helplessness test may be carried out as follows: Seventy male Hartley guinea pigs, each weighing about 350-425 gm are fed ad lib, and are housed under a 12-hour light/dark cycle. The procedure consists of two phases: The induction phase and the avoidance training phase. In the induction phase, subjects are placed into standard shuttle cages (20 L×16 W×21 centimeters H) which are fitted with a grid floor. Electrical stimulation (1.25 mA, 10 sec duration) is delivered to the floor of the cage every 90-sec during 1 hour daily sessions. Subjects have no opportunity to escape or to avoid shocks. Induction is conducted for 2 consecutive days.
In avoidance training, testing is also conducted in the shuttle cages, except that the subjects are not returned to the same chamber in which induction had occurred. Additionally, all cages are fitted with a partition with an arch in the center of the cage, through which animals can pass between the left and right halves of the cage. The procedure employed is a standard shuttle avoidance procedure in which a compound, conditioned stimulus (a 10-sec presentation of a tone and turning on of a lamp on the side of the cage that the guinea pig was occupying) serves to indicate presentation of electrical current to the floor of the cage. Shock is presented for a 5 sec period, 5 sec after initiation of the conditioned stimulus. Entry into the opposite side of the shuttle cage via the arched partition prior to shock onset results in the end of the trial (avoidance response). If shock is delivered, entry into the opposite side of the cage results in termination of the shock and CS (escape). Reversal of learned helplessness in the induction subjects correlates to antidepressant activity of the test compound.
Avoidance training, 45-min in duration, is conducted on 2 consecutive days, beginning 48 hr after the final induction session. Seventy subjects are assigned to 1 of 6 groups of 11-12 animals. The groups are as follows:
Groups 2-6 are given induction and avoidance training sessions. Injections are administered immediately following induction sessions and 1 hour prior to avoidance training sessions. A second injection is administered 7-8 hours following the first injection, for a total of 9 injections administered over 5 days. No injections are administered following the final avoidance training session.
Compounds of the present invention may be administered in a volume of 1 ml/kg bwt. Imipramine is dissolved in DI water. The compounds are dissolved in DI water, to which was added a few drops of lactic acid (pH 5.5). […]
Turning to `CCS(=O)(=O)N1CCN(c2ccc(NC(=O)c3cc(=O)c4cc(F)cc(N5CCN(C)CC5)c4o3)cc2)CC1` [Example 71], the “activity in the learned helplessness assay” value (“activity” below) was “demonstrate activity”.

Turning to `CCC(=O)N1CCN(c2ccc(NC(=O)c3cc(=O)c4cc(F)cc(N5CCN(C)CC5)c4o3)cc2)CC1` [Example 72, 6-flouro-8-(4-methyl-piperazin-1-yl)-4-oxo-4H-chromene-2-carboxylic acid [4-(4-propionyl-piperazin-1-yl)-phenyl]-amide], the “activity” value was “demonstrate activity”.

Turning to `COc1cc(N2CCN(C)CC2)c2oc(C(=O)Nc3ccc(N4CCOCC4)cc3)cc(=O)c2c1` [Example 31, 6-Methoxy-8-(4-methyl-piperazin-1-yl)-4-oxo-4H-chromene-2-carboxylic acid (4-morpholin-4-yl-phenyl)-amide], the “activity” value is on record as “demonstrate activity”.

Take `CCC(=O)N1CCN(c2ccc(NC(=O)c3cc(=O)c4cc(OC)cc(N5CCN(C)CC5)c4o3)cc2)CC1` [Example 44, 6-Methoxy-8-(4-methyl-piperazin-1-yl)-4-oxo-4H-chromene-2-carboxylic acid [4-(4-propionyl-piperazin-1-yl)-phenyl]-amide]: the “activity” value is “demonstrate activity”.

Tested on in another data set: not given
Assay: not given
Conditions: not given
With `CCS(=O)(=O)N1CCN(c2ccc(NC(=O)c3cc(=O)c4cc(F)cc(N5CCN(C)CC5)c4o3)cc2)CC1` [Example 71], the melting point lay within 233 to 234 °C.

For the compound `CCC(=O)N1CCN(c2ccc(NC(=O)c3cc(=O)c4cc(F)cc(N5CCN(C)CC5)c4o3)cc2)CC1` [Example 72, 6-flouro-8-(4-methyl-piperazin-1-yl)-4-oxo-4H-chromene-2-carboxylic acid [4-(4-propionyl-piperazin-1-yl)-phenyl]-amide], the melting point lay within 244 to 245 °C.

Compound `CN1CCN(c2cccc3c2OC(C(=O)Nc2ccc(N4CCOCC4)cc2)CC3)CC1` (single isomer, unassigned; (-)) [Example 77, (−)-8-(4-Methyl-piperazin-1-yl)-chroman-2-carboxylic acid (4-morpholin-4-yl-phenyl)-amide] returned a melting point of 205.5 to 207 °C.

`CN1CCN(c2cc(F)cc3c(=O)cc(C(=O)Nc4ccc(N5CCN(C(=O)CCO)CC5)cc4)oc23)CC1` [Example 73, 6-Fluoro-8-(4-methyl-piperazin-1-yl)-4-oxo-4H-chromene-2-carboxylic acid {4-[4-(3-hydroxy-propanoyl)-piperazin-1-yl]-phenyl}-amide]: the melting point lay within 195 to 199 °C.

Regarding `CN1CCN(c2cccc3c2OC(C(=O)Nc2ccc(N4CCOCC4)cc2)CC3)CC1` (single isomer, unassigned; (+)) [Example 76, (+)-8-(41-Methyl-piperazin-1-yl)-chroman-2-carboxylic acid (4-morpholin-4-yl-phenyl)-amide], the melting point is 206 to 207 °C.

Turning to `CN1CCN(c2cccc3c(=O)cc(C(=O)Nc4ccc(N5CCOCC5)cc4)oc23)CC1` [Example 1, 8-(4-methyl-1-piperazinyl)-N-[4-(4-morpholinyl)phenyl]-4-oxo-4H-chromene-2-carboxamide], the melting point was 217 to 218 °C (dec.).

As for `CN1CCN(c2cccc3c(=O)cc(C(=O)Nc4ccc(N5CCOCC5)cc4O)oc23)CC1` [Example 22, 8-(4-Methyl-piperazin-1-yl)-4-oxo-4H-chromene-2-carboxylic acid (2-hydroxy-4-morpholin-4-yl-phenyl)-amide], the melting point was 248.4 to 249.6 °C.

In the case of `CCS(=O)(=O)N1CCN(c2ccc(NC(=O)c3cc(=O)c4cc(OC)cc(N5CCN(C)CC5)c4o3)cc2)CC1` [Example 45, 6-Methoxy-8-(4-methyl-piperazin-1-yl)-4-oxo-4H-chromene-2-carboxylic acid [4-(4-ethanesulfonyl-piperazin-1-yl)-phenyl]-amide], the melting point lay in the range of 232 to 234 °C.

Turning to `CN1CCN(c2cccc3c2OC(C(=O)Nc2ccc(N4CCOCC4)cc2)CC3=O)CC1` (single isomer, unassigned) [Example 79, 8-(4-Methyl-piperazin-1-yl)-4-oxo-chroman-2-carboxylic acid (4-morpholin-4-yl-phenyl)-amide], the melting point was 216 °C (dec.).

Compound `CN1CCN(c2cccc3c2OC(C(=O)Nc2ccc(N4CCOCC4)cc2)CC3=O)CC1` (racemic) [Example 78, racemic-8-(4-methyl-piperazin-1-yl)-4-oxo-chroman-2-carboxylic acid (4-morpholin-4-yl-phenyl)-amide] yielded a melting point of 215 to 216 °C.

In turn, `COc1cc(N2CCN(C)CC2)c2oc(C(=O)Nc3ccc(N4CCOCC4)cc3)cc(=O)c2c1` [Example 31, 6-Methoxy-8-(4-methyl-piperazin-1-yl)-4-oxo-4H-chromene-2-carboxylic acid (4-morpholin-4-yl-phenyl)-amide] yielded a melting point of 234 to 236 °C.

Compound `CN1CCN(c2cccc3c2OC(C(=O)Nc2ccc(N4CCOCC4)cc2)CC3)CC1` (racemic) [Example 75, racemic-8-(4-Methyl-piperazin-1-yl)-chroman-2-carboxylic acid (4-morpholin-4-yl-phenyl)-amide] had a melting point of 215 to 216 °C.

The compound `CN1CCN(c2cccc3c(=O)cc(C(=O)N(C)c4ccc(N5CCOCC5)cc4)oc23)CC1` [Example 25, 8-(4-Methylpiperazin-1-yl)-4-oxo-4H-chromene-2-carboxylic acid methyl-(4-morpholin-4-yl-phenyl)amide] registered a melting point of 245 to 246.8 °C.

`CN1CCN(c2cccc3c(=O)cc(-c4nc5ccc(N6CCOCC6)cc5o4)oc23)CC1` [Example 21, 8-(4-Methyl-piperazin-1-yl)-2-(6-morpholin-4-yl-benzooxazol-2-yl)-chromen-4-one] yielded a melting point of 158.1 to 158.8 °C.

`CCNC(=O)N1CCN(c2ccc(NC(=O)c3cc(=O)c4cc(F)cc(N5CCN(C)CC5)c4o3)cc2)CC1` [Example 81, 4-[4-({1-[6-Fluoro-8-(4-methyl-piperazin-1-yl)-4-oxo-4H-chromen-2-yl]-methanoyl}-amino)-phenyl]-piperazine-1-carboxylic acid ethylamide] had a melting point of 236 to 238 °C.

Turning to `CN1CCN(c2cccc3c2OC(C(=O)Nc2ccc(N4CCOCC4)cc2)CC3=O)CC1` (single isomer, unassigned) [Example 80, 8-(4-Methyl-piperazin-1-yl)-4-oxo-chroman-2-carboxylic acid (4-morpholin-4-yl-phenyl)-amide], the melting point was 215 °C (dec.).

For `COc1cc(N2CCN(C)CC2)c2oc(C(=O)Nc3ccc(N4CCN(C(=O)CCO)CC4)cc3)cc(=O)c2c1` [Example 68, 6-Methoxy-8-(4-methyl-piperazin-1-yl)-4-oxo-4H-chromene-2-carboxylic acid {4-[4-(3-hydroxy-propanoyl)-piperazin-1-yl]-phenyl}-amide], the melting point lay within 195 to 197 °C.

For a further data set, the target named is 5-HT1B and 5HT1D receptors.
Assay: not given
The conditions noted are these: saturation studies, guinea pig cortex; read-out: Kd value of [3H]GR125743; cited from earlier work.
For the compound `COc1ccc(NC(=O)c2ccc(-c3ccncc3)c(C)c2)cc1N1CCN(C)CC1` [[^3H]-GR125743], the Kd is 0.046 ± 0.004 nM.
